Experimental data published in patent US9029389B2 (Institut Pasteur Korea, priority 2011, dated 2015).
pIC50: −log10 of the molar value.

Target: T1, Human 5-lipoxygenase (Homo sapiens, UniProt P09917)
T1 construct: purchased Cayman 60402; host or cells: insect cells
T1 sequence (P09917 1-674): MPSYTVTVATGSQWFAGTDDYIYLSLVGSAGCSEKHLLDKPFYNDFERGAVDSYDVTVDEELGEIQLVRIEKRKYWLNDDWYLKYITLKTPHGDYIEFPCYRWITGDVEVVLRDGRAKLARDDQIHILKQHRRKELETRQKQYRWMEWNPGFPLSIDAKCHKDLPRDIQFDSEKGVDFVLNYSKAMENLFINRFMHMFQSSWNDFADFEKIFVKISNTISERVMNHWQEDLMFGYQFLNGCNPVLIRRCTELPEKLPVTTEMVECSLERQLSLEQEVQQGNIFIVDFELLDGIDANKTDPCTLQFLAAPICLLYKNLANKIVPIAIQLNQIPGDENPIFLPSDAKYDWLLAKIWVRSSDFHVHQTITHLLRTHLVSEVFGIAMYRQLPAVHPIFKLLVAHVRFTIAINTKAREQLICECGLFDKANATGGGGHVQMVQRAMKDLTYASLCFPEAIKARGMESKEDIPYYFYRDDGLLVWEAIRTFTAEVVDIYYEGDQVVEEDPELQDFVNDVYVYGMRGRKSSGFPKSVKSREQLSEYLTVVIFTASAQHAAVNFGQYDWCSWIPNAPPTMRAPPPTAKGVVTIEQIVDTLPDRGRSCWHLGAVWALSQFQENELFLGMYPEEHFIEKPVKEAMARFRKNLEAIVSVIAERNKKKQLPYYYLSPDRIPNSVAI
Experiment: Activity of compounds against 5-LO enzyme (LTB4 measurement and/or fluorescence method)
Type: biochemical
Details: for inhibition at 10 µM: 5-LO, single concentration of 10 uM in duplicate; for pIC50: 6 or 11 point dose response in duplicate
Procedure, shortened: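 Insect-cell human 5-LO preincubated 15 min at RT with compound (pH 7.4, 2 mM CaCl2, 0.1 mM ATP, 1% DMSO), then 3 uM arachidonic acid for 5 min at 37 °C; LTB4 quantified by EIA and/or LC/MS/MS. Alternatively, fluorescence of 5-HpETE via H2DCFDA, 100 uM ATP, 3 uM arachidonic acid, 5 min, RT; single 10 uM screen then 6- or 11-point IC50.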

Row | SMILES | inhibition at 10 µM | pIC50
1 | CCc1nc2ccccn2c1C(=O)NCc1ccc(C(C)(C)C)cc1 [compound 49, N-(4-tert-Butylbenzyl)-2-ethylimidazo[1,2-a]pyridine-3-carboxamide] | < 40% | –
2 | CCc1nc2ccc(C)cn2c1C(=O)NCc1ccc(Oc2ccc(OC(F)(F)F)cc2)cc1 [compound 232, 2-Ethyl-6-methyl-N-(4-(4-(trifluoromethoxy)phenoxy)benzyl)imidazo[1,2-a]pyridine-3-carboxamide] | > 69% | > 6.00
3 | CCc1nc2cc(Cl)ccn2c1C(=O)NCc1ccc(N2CCC(c3ccc(OC(F)(F)F)cc3)CC2)cc1 [compound 268, 7-Chloro-2-ethyl-N-(4-(4-(4-(trifluoromethoxy)phenyl)piperidin-1-yl)benzyl)imidazo[1,2-a]pyridine-3-carboxamide] | 40 to 69% | –
4 | CCc1nc2cc(Cl)ccn2c1C(=O)NCc1ccc(Nc2ccc(OC(F)(F)F)cc2)cc1 [compound 175, 7-Chloro-2-ethyl-N-(4-(4-(trifluoromethoxy)phenylamino)benzyl)imidazo[1,2-a]pyridine-3-carboxamide] | > 69% | 4.70 to 6.00
5 | CCc1nc2ccc(Cl)cn2c1C(=O)N1CCC(Cn2cc(C(O)(CC)C(F)(F)F)nn2)CC1 (stereo not drawn) [compound 350, (6-chloro-2-ethylimidazo[1,2-a]pyridin-3-yl)(4-((4-(1,1,1-trifluoro-2-hydroxybutan-2-yl)-1H-1,2,3-triazol-1-yl)methyl)piperidin-1-yl)methanone] | < 40% | –
6 | CCc1nc2cc(Cl)ccn2c1C(=O)NCc1ccn(-c2ccc(F)cc2)n1 [compound 154, 7-Chloro-2-ethyl-N-((1-(4-fluorophenyl)-1H-pyrazol-3-yl)methyl)imidazo[1,2-a]pyridine-3-carboxamide] | < 40% | –
7 | CCOC(=O)c1c(C)nc2ccc(-c3ccccc3)cn12 [compound 27, Ethyl 2-methyl-6-phenylimidazo[1,2-a]pyridine-3-carboxylate] | 40 to 69% | –
8 | CCc1nc2cc(Cl)ccn2c1C(=O)NCc1ccc(N2CCC(C(=O)N(C)C)CC2)cc1 [compound 294, 7-Chloro-N-(4-(4-(dimethylcarbamoyl)piperidin-1-yl)benzyl)-2-ethylimidazo[1,2-a]pyridine-3-carboxamide] | < 40% | –
9 | CCc1nc2cc(Cl)ccn2c1C(=O)NCc1ccc2[nH]c(-c3ccc(OC(F)(F)F)cc3)nc2c1 [compound 186, 7-Chloro-2-ethyl-N-((2-(4-(trifluoromethoxy)phenyl)-1H-benzo[d]imidazol-5-yl)methyl)imidazo[1,2-a]pyridine-3-carboxamide] | 40 to 69% | –
10 | CCc1nc2ccc(Cl)cn2c1CN1CCC(CCc2ccc(F)cc2)CC1 [compound 349, 6-chloro-2-ethyl-3-((4-(4-fluorophenethyl)piperidin-1-yl)methyl)imidazo[1,2-a]pyridine] | 40 to 69% | –
11 | Cc1nc2ccccn2c1C(=O)NCc1ccccc1 [compound 3, N-Benzyl-2-methylimidazo[1,2-a]pyridine-3-carboxamide] | < 40% | –
12 | CCc1nc2cc(Cl)ccn2c1C(=O)NCc1ccc(-c2ccccc2)cc1 [compound 91, N-(Biphenyl-4-ylmethyl)-7-chloro-2-ethylimidazo[1,2-a]pyridine-3-carboxamide] | 40 to 69% | –
13 | Cc1nc2ccccn2c1C(=O)NCCc1ccccc1 [compound 12, 2-Methyl-N-phenethylimidazo[1,2-a]pyridine-3-carboxamide] | < 40% | –
14 | CCc1nc2ccc(Cl)cn2c1C(=O)NCc1ccc(N2CCC(c3ccc(Cl)cc3)CC2)cc1 [compound 296, 6-Chloro-N-(4-(4-(4-chlorophenyl)piperidin-1-yl)benzyl)-2-ethylimidazo[1,2-a]pyridine-3-carboxamide] | > 69% | –
15 | CCc1nc2ccc(Cl)cn2c1C(=O)NCc1nc2ccc(Cl)cc2[nH]1 [compound 365, 6-chloro-N-((6-chloro-1H-benzo[d]imidazol-2-yl)methyl)-2-ethylimidazo[1,2-a]pyridine-3-carboxamide] | < 40% | –
16 | CCCc1nc2ccccn2c1C(=O)NCc1ccc(-c2ccccc2)cc1 [compound 46, N-(Biphenyl-4-ylmethyl)-2-propylimidazo[1,2-a]pyridine-3-carboxamide] | 40 to 69% | –
17 | CCc1nc2ccc(Cl)cn2c1C(=O)NCC1CCCc2c1cnn2-c1ccc(F)cc1 (stereo not drawn) [compound 149, 6-Chloro-2-ethyl-N-((1-(4-fluorophenyl)-4,5,6,7-tetrahydro-1H-indazol-4-yl)methyl)imidazo[1,2-a]pyridine-3-carboxamide] | 40 to 69% | –

Row | SMILES | inhibition at 10 µM | pIC50
18 | CCc1nc2cc(Cl)ccn2c1C(=O)NCc1ccc(N2CCC(C)CC2)cc1 [compound 195, 7-Chloro-2-ethyl-N-(4-(4-methylpiperidin-1-yl)benzyl)imidazo[1,2-a]pyridine-3-carboxamide] | 40 to 69% | –
19 | CCc1nc2cc([N+](=O)[O-])ccn2c1C(=O)NCc1ccc(OC(F)(F)F)cc1 [compound 150, 2-Ethyl-7-nitro-N-(4-(trifluoromethoxy)benzyl)imidazo[1,2-a]pyridine-3-carboxamide] | 40 to 69% | –
20 | CCc1nc2ccc(Cl)cn2c1CNCCc1ccccn1 [compound 342, N-((6-chloro-2-ethylimidazo[1,2-a]pyridin-3-yl)methyl)-2-(pyridin-2-yl)ethanamine] | < 40% | –
21 | CCc1nc2cc(Cl)ccn2c1C(=O)NCc1ccc(-c2ccccc2C)cc1 [compound 85, 7-Chloro-2-ethyl-N-((2′-methylbiphenyl-4-yl)methyl)imidazo[1,2-a]pyridine-3-carboxamide] | > 69% | –
22 | CCc1nc2ccc(Cl)cn2c1C(=O)NCc1ccc(N2CCC(C(=O)N(C)C)CC2)cc1 [compound 293, 6-Chloro-N-(4-(4-(dimethylcarbamoyl)piperidin-1-yl)benzyl)-2-ethylimidazo[1,2-a]pyridine-3-carboxamide] | < 40% | –
23 | CCc1nc2cc(Cl)ccn2c1C(=O)NCc1ccc(N2CCC(Oc3ccc(C(F)(F)F)cc3)CC2)cc1 [compound 169, 7-Chloro-2-ethyl-N-(4-(4-(4-(trifluoromethyl)phenoxy)piperidin-1-yl)benzyl)imidazo[1,2-a]pyridine-3-carboxamide] | 40 to 69% | –
24 | CCc1nc2cc(Cl)ccn2c1C(=O)NCc1ccc(N2CCC(COC3CCCC3)CC2)cc1 [compound 286, 7-Chloro-N-(4-(4-(cyclopentyloxymethyl)piperidin-1-yl)benzyl)-2-ethylimidazo[1,2-a]pyridine-3-carboxamide] | 40 to 69% | –
25 | CCc1nc2ccc(Cl)cn2c1C(=O)NCc1ccc(Cl)cc1 [compound 78, 6-Chloro-N-(4-chlorobenzyl)-2-ethylimidazo[1,2-a]pyridine-3-carboxamide] | < 40% | –
26 | CCc1nc2ccc(Cl)cn2c1C(=O)NCc1ccc(-c2ccc(C)cc2)cc1 [compound 77, 6-Chloro-2-ethyl-N-((4′-methylbiphenyl-4-yl)methyl)imidazo[1,2-a]pyridine-3-carboxamide] | < 40% | –
27 | COC(=O)[C@H](Cc1ccccc1)NC(=O)c1c(C)nc2ccccn12 [compound 23, (S)-Methyl 2-(2-methylimidazo[1,2-a]pyridine-3-carboxamido)-3-phenylpropanoate] | < 40% | –
28 | CCc1nc2ccc(Cl)cn2c1C(=O)NCc1ccc(N2CCCCC2C)cc1 (stereo not drawn) [compound 251, 6-chloro-2-ethyl-N-(4-(2-methylpiperidin-1-yl)benzyl)imidazo[1,2-a]pyridine-3-carboxamide] | < 40% | –
29 | CCc1nc2cccnn2c1C(=O)NCc1ccc(-c2ccc(Cl)cc2)cc1 [compound 388, N-((4′-Chloro-[1,1′-biphenyl]-4-yl)methyl)-2-ethylimidazo[1,2-b]pyridazine-3-carboxamide] | – | < 4.70
30 | Cc1nc2ccccn2c1C(=O)NCc1ccc(C(=O)O)cc1 [compound 26, 4-((2-Methylimidazo[1,2-a]pyridine-3-carboxamido)methyl)benzoic acid] | < 40% | –
31 | CCc1nc2cc(Cl)ccn2c1C(=O)NCc1ccc(-c2cccc(C)c2)cc1 [compound 86, 7-Chloro-2-ethyl-N-((3′-methylbiphenyl-4-yl)methyl)imidazo[1,2-a]pyridine-3-carboxamide] | > 69% | 4.70 to 6.00
32 | CCc1nc2ccc(Cl)cn2c1C(=O)NCC1CCCc2c1cnn2-c1ccc(OC(F)(F)F)cc1 (stereo not drawn) [compound 147, 6-Chloro-2-ethyl-N-((1-(4-(trifluoromethoxy)phenyl)-4,5,6,7-tetrahydro-1H-indazol-4-yl)methyl)imidazo[1,2-a]pyridine-3-carboxamide] | 40 to 69% | –
33 | CCc1nc2ccccn2c1C(=O)NCc1ccc(OC(F)(F)F)cc1 [compound 51, 2-Ethyl-N-(4-(trifluoromethoxy)benzyl)imidazo[1,2-a]pyridine-3-carboxamide] | < 40% | –
